Tested on: rat small-intestinal brush border membrane vesicles
Experiment: Inhibitory effect on 33PO4 uptake into rat small-intestinal brush border membrane vesicles (rapid filtration method)
Type: biochemical
Details: 33PO4 uptake into rat small-intestinal BBMVs; test compound 1 µM; reacted for 60 seconds
How it was run: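 Uptake of ^33PO4 was measured by rapid filtration and liquid scintillation counting of filter-retained vesicles, after quenching with ice-cold 110 mM NaCl/1 mM KH2PO4/10 mM HEPES pH 7.5. Vesicles were brush border membranes from the upper small intestine of female Wistar rats aged 4–5 weeks.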

| Compound | Rate of uptake inhibition (%) (1 µM) |
| --- | --- |
| CN(C[C@H](O)[C@@H](O)[C@H](O)[C@H](O)CO)C(=O)COCCOCCOCCOCCOc1ccc(CN2C(=O)C(C(=O)Nc3ccc(C(F)(F)F)cc3-c3cc(C(F)(F)F)ncn3)=C(O)C3(CCCC3)N2C)c(F)c1F [Example 441, 7-[[2,3-Difluoro-4-[2-[2-[2-[2-[2-[methyl-[(2S,3R,4R,5R)-2,3,4,5,6-pentahydroxyhexyl]amino]-2-oxoethoxy]ethoxy]ethoxy]ethoxy]ethoxy]phenyl]methyl]-10-hydroxy-6-methyl-8-oxo-N-[4-(trifluoromethyl)-2-[6-(trifluoromethyl)pyrimidin-4-yl]phenyl]-6,7-diazaspiro[4.5]dec-9-ene-9-carboxamide] | 22% |
| CN1N(Cc2ccc(OCCN3C4CCC3COC4)c(F)c2F)C(=O)C(C(=O)Nc2ccc(C(F)(F)F)cc2-c2cc(C(F)(F)F)ncn2)=C(O)C12CCCC2 [Example 367] | 43% |
| C[C@]12CCCN1N(Cc1cccc(F)c1F)C(=O)C(C(=O)Nc1ccc(C(F)(F)F)cc1-c1cnc(Cl)nc1)=C2O [Example 67] | 91% |
| COc1cccc(-c2cc(C(F)(F)F)ccc2NC(=O)C2=C(O)[C@@]3(C)CCCN3N(Cc3ccc(C#CCCCO)c(F)c3F)C2=O)c1OC [Example 138] | 93% |
| C[C@]12CCCN1N(Cc1cccc(F)c1Cl)C(=O)C(C(=O)Nc1cc(F)c(Br)c(F)c1)=C2O [Example 174] | 87% |
| C[C@]12CCCN1N(Cc1cccc(F)c1F)C(=O)C(C(=O)Nc1ccc(Cl)cn1)=C2O [Example 79] | 71% |
| Cc1cccc(CN2C(=O)C(C(=O)Nc3ccc(C(F)(F)F)cc3-c3cc(C(F)(F)F)ncn3)=C(O)[C@@]3(C)CCCN23)c1F [Example 215] | 86% |
| CN1N(Cc2ccc(OCCN3CCOCC3)c(F)c2F)C(=O)C(C(=O)Nc2ccc(C(F)(F)F)cc2-c2ccc(C(F)(F)F)nc2)=C(O)C1(C)C [Example 314, 2-[[2,3-Difluoro-4-(2-morpholin-4-ylethoxy)phenyl)methyl]-5-hydroxy-1,6,6-trimethyl-3-oxo-N-[4-(trifluoromethyl)-2-[6-(trifluoromethyl)pyridin-3-yl]phenyl]pyridazine-4-carboxamide] | 72% |
| CN1N(Cc2ccc(OCCN3CCN(CCOCCO)CC3)c(F)c2F)C(=O)C(C(=O)Nc2ccc(C(F)(F)F)cc2-c2cc(C(F)(F)F)ncn2)=C(O)C12CCCC2 [Example 378] | 35% |
| CN1N(Cc2ccc(OCCN3CCOCC3)c(F)c2F)C(=O)C(C(=O)Nc2ccc(C(F)(F)F)cc2-c2ncnc(C(F)(F)F)c2Cl)=C(O)C12CCC2 [Example 284] | 46% |
| CN1N(Cc2ccc(C#CCN3CCOCC3)c(F)c2F)C(=O)C(C(=O)Nc2ccc(Cl)cc2-c2cc(C(F)(F)F)ncn2)=C(O)C1(C)C [Example 316, N-[4-Chloro-2-[6-(trifluoromethyl)pyrimidin-4-yl]phenyl]-2-[[2,3-difluoro-4-(3-morpholin-4-ylprop-1-ynil)phenyl]methyl]-5-hydroxy-1,6,6-trimethyl-3-oxopyridaxine-4-carboxamide] | 64% |
| CN1N(Cc2ccc(OCCN3CCOCC3)c(F)c2F)C(=O)C(C(=O)Nc2ccc(Cl)cc2-c2ccc(C(F)(F)F)nc2)=C(O)C12CCCC2 [Example 288] | 61% |
| C[C@]12CCCN1N(Cc1cccc(Cl)c1)C(=O)C(C(=O)Nc1ccc(C(F)(F)F)cc1-c1ccc(C(F)(F)F)nc1)=C2O [Example 169] | 73% |
| C[C@]12CCCN1N(Cc1cccc(F)c1F)C(=O)C(C(=O)Nc1ccc(C(F)(F)F)cc1-c1cncc(C(F)(F)F)c1)=C2O [Example 91] | 87% |
| CN1N(Cc2ccc(OCCCCOC[C@H](O)CO)c(F)c2F)C(=O)C(C(=O)Nc2ccc(C(F)(F)F)cc2-c2ccc(C(F)(F)F)nc2)=C(O)C12CCCC2 [Example 387] | 23% |
| C[C@]12CCCN1N(Cc1ccccc1F)C(=O)C(C(=O)Nc1ccc(C(F)(F)F)cc1-c1ccc(C(F)(F)F)nc1)=C2O [Example 200] | 80% |
| C[C@]12CCCN1N(Cc1c(F)cc(C#CCCCCCOC[C@H](O)[C@@H](O)CO)cc1F)C(=O)C(C(=O)Nc1ccc(C(F)(F)F)cc1-c1ccc(C(F)(F)F)nc1)=C2O [Example 124] | 81% |
| C[C@]12CCCN1N(Cc1cccc(F)c1F)C(=O)C(C(=O)Nc1ccc(C(F)(F)F)cc1-c1cnc(Br)cn1)=C2O [Example 73] | 74% |
| CSc1cc(-c2cc(C(F)(F)F)ccc2NC(=O)C2=C(O)[C@@]3(C)CCCN3N(Cc3cccc(F)c3F)C2=O)cnc1C#N [Example 113, (4aR)-N-[2-(6-Cyano-5-methylsulfanylpyridin-3-yl)-4-(trifluoromethyl)phenyl]-1-[(2,3-difluorophenyl)methyl]-4-hydroxy-4a-methyl-2-oxo-6,7-dihydro-5H-pyrrolo[1,2-b]pyridazine-3-carboxamide] | 84% |
| CN1N(Cc2ccc(OCCN3CCOCC3)c(F)c2F)C(=O)C(C(=O)Nc2ccc(Cl)cc2-c2cc(C(F)(F)F)ncn2)=C(O)C12CCCCC2 [Example 297] | 36% |

| Compound | Rate of uptake inhibition (%) (1 µM) |
| --- | --- |
| CCOC(=O)CCCCCCN1C(=O)C(C(=O)Nc2ccc(C(F)(F)F)cc2-c2ccc(C(F)(F)F)nc2)=C(O)[C@@]2(C)CCCN12 [Example 235, Ethyl 7-[(4aR)-4-hydroxy-4a-methyl-2-oxo-3-[[4-(trinuoromethyl)-2-[6-(trifluoromethyl)pyridin-3-yl]phenyl]carbamoyl]-6,7-dihydro-5H-pyrrolo[1,2-b]pyridazin-1-yl]heptanoate] | 65% |
| CN1N(Cc2ccc(OCCCOC[C@H](O)CO)c(F)c2F)C(=O)C(C(=O)Nc2ccc(C(F)(F)F)cc2-c2cc(C(F)(F)F)ncn2)=C(O)C12CCC2 [Example 389] | 29% |
| C[C@]12CCCN1N(Cc1ccc(F)cc1)C(=O)C(C(=O)Nc1ccc(C(F)(F)F)cc1-c1cc(C(F)(F)F)ncn1)=C2O [Example 208] | 90% |
| Cc1c(Cl)ncnc1-c1cc(C(F)(F)F)ccc1NC(=O)C1=C(O)[C@@]2(C)CCCN2N(Cc2cccc(F)c2F)C1=O [Example 69] | 74% |
| CN1N(Cc2ccc(OCCCCCCC(=O)O)c(F)c2F)C(=O)C(C(=O)Nc2ccc(C(F)(F)F)cc2-c2cc(C(F)(F)F)ncn2)=C(O)C12CCCC2 [Example 335] | 30% |
| C[C@]12CCCN1N(Cc1c(F)cc(OCCCCCCOC[C@H](O)CO)cc1F)C(=O)C(C(=O)Nc1ccc(C(F)(F)F)cc1-c1ccc(C(F)(F)F)nc1)=C2O [Example 155] | 77% |
| CSc1ccc(-c2cc(C(F)(F)F)ccc2NC(=O)C2=C(O)C(C)(C)N(C)N(Cc3cccc(F)c3F)C2=O)cn1 [Example 310] | 63% |
| CN1N(Cc2ccc(OCCN3CCC(N4CCOCC4)CC3)c(F)c2F)C(=O)C(C(=O)Nc2ccc(C(F)(F)F)cc2-c2cc(C(F)(F)F)ncn2)=C(O)C12CCCC2 [Example 374] | 42% |
| C[C@]12CCCN1N(Cc1ccccc1C#N)C(=O)C(C(=O)Nc1ccc(C(F)(F)F)cc1-c1cc(C(F)(F)F)ncn1)=C2O [Example 178] | 81% |
| CN1N(Cc2ccc(OCCCOCCCO)c(F)c2F)C(=O)C(C(=O)Nc2ccc(C(F)(F)F)cc2-c2cc(C(F)(F)F)ncn2)=C(O)C12CCCC2 [Example 398] | 34% |
| C[C@]12CCCN1N(Cc1ccc(OC[C@H]3CCCO3)c(F)c1F)C(=O)C(C(=O)Nc1ccc(C(F)(F)F)cc1-c1ccc(C(F)(F)F)nc1)=C2O [Example 160] | 77% |
| COc1cccc(-c2cc(C(F)(F)F)ccc2NC(=O)C2=C(O)[C@@]3(C)CCCN3N(Cc3ccc(C#CCOCCOCCO)c(F)c3F)C2=O)c1OC [Example 139] | 88% |
| C[C@]12CCCN1N(Cc1cc(F)c(F)c(F)c1)C(=O)C(C(=O)Nc1cc(F)c(Br)c(F)c1)=C2O [Example 197] | 82% |
| CCN1[C@@H](C(C)(C)C)C(O)=C(C(=O)Nc2ccc(Cl)cc2-c2ccc(C(F)(F)F)nc2)C(=O)N1Cc1cccc(F)c1F [Example 245] | 40% |
| CN(C)S(=O)(=O)N1CCC(c2cc(C(F)(F)F)ccc2NC(=O)C2=C(O)[C@@]3(C)CCCN3N(Cc3cccc(F)c3F)C2=O)CC1 [Example 110] | 57% |
| C[C@]12CCCN1N(Cc1ccc(F)c(F)c1)C(=O)C(C(=O)Nc1ccc(C(F)(F)F)cc1-c1cc(C(F)(F)F)ncn1)=C2O [Example 214] | 91% |
| C[C@]12CCCN1N(Cc1cccc(F)c1F)C(=O)C(C(=O)Nc1ccc(C(F)(F)F)cc1-c1cncc(C#N)c1)=C2O [Example 82] | 100% |
| CC1(C)C(O)=C(C(=O)Nc2ccc(C(F)(F)F)cc2-c2cc(C(F)(F)F)ncn2)C(=O)N(Cc2cccc(F)c2F)N1c1ccccc1 [Example 299] | 45% |
| CSc1ccc(-c2nc(C(F)(F)F)ccc2NC(=O)C2=C(O)[C@@]3(C)CCCN3N(Cc3cccc(F)c3F)C2=O)cn1 [Example 105] | 72% |
| C[C@]12CCCN1N(Cc1ccc(OCCN3CCOCC3)c(F)c1F)C(=O)C(C(=O)Nc1ccc(C(F)(F)F)nc1-c1cncc(C(F)(F)F)c1)=C2O [Example 106] | 79% |

Reference: patent EP3928779A1 (Chugai Seiyaku Kabushiki Kaisha, priority 2014, dated 2016)
